Reference: patent US10781226B2, “Photoactivatable cancer prodrug” (Texas State University, priority 2017, dated 2020)
Values after ≈ are worked out from the molar mass of the structure shown.

How the values were obtained:
[1] = test system: A375, A431, A549, MRC-5 cells; test: Photocytotoxicity assay, summary across cell lines; type: cell-based
[2] = Solubility in demineralized water; type: physicochemical; conditions: read-out: maximum solubility
tubulin = conditions: polymerization enhancer control
Source text: Raw fluorescence was normalized by initial fluorescence for each sample. Samples consists of the caged drug (not irradiated), the caged drug irradiated with green light, and the caged drug irradiated with blue light.
In this assay, increased fluorescence indicates tubulin polymerization.

## [NH2][Pt]([NH2])([Cl])[Cl] [CDDP, cisplatin]
[1]; range across all tested cell lines
  EC50: 850 to 3060 nM

## F[P-](F)(F)(F)(F)F.F[P-](F)(F)(F)(F)F.O.[Ru+2].c1ccc(-c2cccc(-c3ccccn3)n2)nc1.c1ccc(-c2ccccn2)nc1 [[3](PF6)2]
[1]; all tested cell lines
  activity across all tested cell lines: no activity

## CSCCCc1nc(=O)c2c(-c3ccccc3)c(C(=O)c3ccccc3)[nH]c2[nH]1 [compound 1]
[2]
  solubility: 10 µM (≈ 4.04 µg/mL)

## CC(=O)O[C@H]1C(=O)[C@@]2(C)[C@H]([C@H](OC(=O)c3ccccc3)[C@]3(O)C[C@H](OC(=O)[C@H](O)[C@@H](NC(=O)c4ccccc4)c4ccccc4)C(C)=C1C3(C)C)[C@]1(OC(C)=O)CO[C@@H]1C[C@@H]2O [paclitaxel, reference compound]
tubulin
  tubulin polymerization: induces rapid polymerization of tubulin
